Earlier results as cited in patent US20060052354A1, “Methods for treating migraine” (Corcept Therapeutics, Inc., priority 2002, published 2006).

Assays:
[1] = target: T1, glucocorticoid (GR) receptors (Homo sapiens, UniProt P04150)
T1 sequence (P04150 1-777): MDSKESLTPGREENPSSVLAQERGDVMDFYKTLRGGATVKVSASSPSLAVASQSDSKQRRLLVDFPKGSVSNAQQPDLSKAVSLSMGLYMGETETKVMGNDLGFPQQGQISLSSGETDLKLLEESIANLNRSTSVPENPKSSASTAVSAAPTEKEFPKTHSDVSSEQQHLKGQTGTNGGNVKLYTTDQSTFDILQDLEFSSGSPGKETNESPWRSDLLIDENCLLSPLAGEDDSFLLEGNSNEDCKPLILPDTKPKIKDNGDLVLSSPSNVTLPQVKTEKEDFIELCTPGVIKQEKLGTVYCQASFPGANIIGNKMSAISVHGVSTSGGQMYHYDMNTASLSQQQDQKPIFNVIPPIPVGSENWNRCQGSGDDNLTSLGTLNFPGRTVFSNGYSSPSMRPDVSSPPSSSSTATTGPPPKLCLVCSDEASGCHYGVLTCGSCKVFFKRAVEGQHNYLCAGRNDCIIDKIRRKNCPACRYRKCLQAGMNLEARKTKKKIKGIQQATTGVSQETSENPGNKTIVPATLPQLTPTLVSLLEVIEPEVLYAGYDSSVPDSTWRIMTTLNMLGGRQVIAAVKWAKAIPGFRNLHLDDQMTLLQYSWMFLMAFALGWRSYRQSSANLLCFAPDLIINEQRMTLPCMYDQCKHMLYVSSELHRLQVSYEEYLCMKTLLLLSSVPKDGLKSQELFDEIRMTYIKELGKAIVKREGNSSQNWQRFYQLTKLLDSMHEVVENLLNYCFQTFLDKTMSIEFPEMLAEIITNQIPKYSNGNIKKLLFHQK

[2] = in one study (Kawai)
[3] = target: T2, progesterone receptor (Homo sapiens, UniProt P06401)
T2 sequence (P06401 1-933): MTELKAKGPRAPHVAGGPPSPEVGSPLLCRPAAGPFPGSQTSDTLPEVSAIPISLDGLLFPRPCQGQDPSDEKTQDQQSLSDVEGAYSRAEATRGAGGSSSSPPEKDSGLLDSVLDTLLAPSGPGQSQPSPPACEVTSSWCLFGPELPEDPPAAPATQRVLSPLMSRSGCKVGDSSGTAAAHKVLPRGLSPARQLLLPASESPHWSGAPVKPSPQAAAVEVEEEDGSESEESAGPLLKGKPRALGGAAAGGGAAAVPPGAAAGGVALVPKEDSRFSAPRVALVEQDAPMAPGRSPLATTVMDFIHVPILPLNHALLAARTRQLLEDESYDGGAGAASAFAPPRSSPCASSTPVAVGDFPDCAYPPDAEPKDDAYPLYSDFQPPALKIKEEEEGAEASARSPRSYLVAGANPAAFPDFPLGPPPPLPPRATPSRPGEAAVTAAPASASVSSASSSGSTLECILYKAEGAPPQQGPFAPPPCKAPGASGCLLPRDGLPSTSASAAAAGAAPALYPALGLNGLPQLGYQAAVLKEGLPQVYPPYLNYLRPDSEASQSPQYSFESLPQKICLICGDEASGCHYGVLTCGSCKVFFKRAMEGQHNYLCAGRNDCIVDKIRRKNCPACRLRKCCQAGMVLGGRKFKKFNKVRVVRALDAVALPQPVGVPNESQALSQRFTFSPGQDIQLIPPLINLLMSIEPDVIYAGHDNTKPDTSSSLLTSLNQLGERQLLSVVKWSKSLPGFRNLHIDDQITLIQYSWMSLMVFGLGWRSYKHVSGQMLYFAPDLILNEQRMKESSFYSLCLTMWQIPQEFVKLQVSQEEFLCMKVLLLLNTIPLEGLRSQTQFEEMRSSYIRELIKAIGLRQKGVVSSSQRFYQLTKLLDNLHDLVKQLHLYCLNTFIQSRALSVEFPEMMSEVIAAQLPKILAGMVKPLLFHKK

[4] = target: T3, Mineralocorticoid receptors (MRs) (Homo sapiens, UniProt P08235); conditions: MR versus GR
T3 sequence (P08235 1-984): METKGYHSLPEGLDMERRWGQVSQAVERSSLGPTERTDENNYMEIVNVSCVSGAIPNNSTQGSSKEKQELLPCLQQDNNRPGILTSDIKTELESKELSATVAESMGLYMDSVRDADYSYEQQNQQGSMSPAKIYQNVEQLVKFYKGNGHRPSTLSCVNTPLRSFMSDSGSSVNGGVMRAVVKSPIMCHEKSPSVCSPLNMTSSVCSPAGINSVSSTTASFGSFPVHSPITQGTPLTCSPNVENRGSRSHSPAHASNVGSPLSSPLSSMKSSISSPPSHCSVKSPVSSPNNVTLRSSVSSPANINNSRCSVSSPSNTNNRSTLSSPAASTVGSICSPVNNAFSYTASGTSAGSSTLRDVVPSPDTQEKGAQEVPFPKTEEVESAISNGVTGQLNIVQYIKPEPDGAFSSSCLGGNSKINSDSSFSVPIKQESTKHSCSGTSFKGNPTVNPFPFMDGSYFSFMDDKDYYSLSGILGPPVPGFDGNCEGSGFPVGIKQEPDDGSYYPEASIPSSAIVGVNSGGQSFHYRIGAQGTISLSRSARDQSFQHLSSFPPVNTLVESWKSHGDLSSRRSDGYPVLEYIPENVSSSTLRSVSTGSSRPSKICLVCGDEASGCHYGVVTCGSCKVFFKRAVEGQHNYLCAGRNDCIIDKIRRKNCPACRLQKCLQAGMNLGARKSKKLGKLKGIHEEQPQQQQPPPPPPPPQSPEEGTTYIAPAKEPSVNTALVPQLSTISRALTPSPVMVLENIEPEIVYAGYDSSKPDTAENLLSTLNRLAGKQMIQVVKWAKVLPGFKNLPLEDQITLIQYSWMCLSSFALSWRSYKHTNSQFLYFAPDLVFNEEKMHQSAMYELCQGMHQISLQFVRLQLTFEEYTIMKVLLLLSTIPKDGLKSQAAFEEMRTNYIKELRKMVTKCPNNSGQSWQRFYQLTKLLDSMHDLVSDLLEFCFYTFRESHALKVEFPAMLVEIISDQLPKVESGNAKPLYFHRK

SMILES	antagonist of the glucocorticoid (GR) receptor [1]	daily dose excreted in the urine [2]	antagonist of the progesterone receptor [3]	affinity of MRs for cortisol relative to GRs for glucocorticoids [4]
CC#C[C@]1(O)CC[C@H]2[C@@H]3CCC4=CC(=O)CCC4=C3[C@@H](c3ccc(OCCN(C)C)cc3)C[C@@]21C [RU009, 11β-(4-dimethylaminoethoxyphenyl)-17α-propynyl-17β-hydroxy-4,9-estradien-3-one]	GR antagonist effects			
CC#C[C@]1(O)CC[C@H]2[C@@H]3CCC4=CC(=O)CCC4=C3[C@@H](c3ccc(N(C)C)cc3)C[C@@]21C [Mifepristone, (11β,17β) 11 [4 (dimethylamino)phenyl]-17 hydroxy-17 (1 propynyl)estra-4,9 dien-3 one]	powerful antagonist	less than 0.5%	powerful antagonist	
C[C@]12CCC(=O)C=C1CC[C@@H]1[C@@H]2[C@@H](O)C[C@@]2(C)[C@H]1CC[C@]2(O)C(=O)CO [cortisol]				ten-fold
